Values of other authors as cited in the CATMoS acute toxicity set (Mansouri et al. 2021).

Test: rat acute oral toxicity
Conditions: in vivo

Compound | LD50 [mg/kg]
F[Si](F)(F)c1ccccc1 | 310
Nc1ccc(OC(F)(F)C(F)F)c(N)c1 | 1070
CC(O)C1CCCCC1 (centres undefined) | 2100
Cn1c(CCCC(=O)O)nc2cc(N(CCCl)CCCl)ccc21 | 200
Nc1ccc(Cc2ccc(N)cc2)cc1 | 517
CN(SC(Cl)(Cl)Cl)C(=O)Oc1cccc2c1OC(C)(C)C2 | 125
CC(C)=NNC(=O)CSc1cc(Oc2ccccc2)ncn1 | 1080
FC(F)(F)c1nc2c(Br)ccc(Br)c2[nH]1 | 18
O=C1c2ccccc2CCC1CNCCc1ccc(O)cc1 (centres undefined) | 650
OCCN1CCN(CCCN2c3ccccc3Sc3cc(Cl)cnc32)CC1 | 657
CCSCc1cnc(C)c(O)c1CO | 3770
C=CC(=O)OCC(CO)(COC(=O)C=C)COC(=O)C=C | 1830
CCCCCCCCCCCC(=O)N(CCO)CCO | 2700
CCOP(=O)(OCC)OC(C)=CC(=O)OC(C)c1ccccc1 (centres undefined) | 65
O=C(COc1ccc(Cc2ccc(Cl)cc2)cc1)OCc1cccnc1 | 2700
CC(Br)CBr (centres undefined) | 741
NC(=O)COc1ccc(Cl)cc1Cl | 1200
CCCCCCCC(=O)Oc1c(I)cc(C#N)cc1I | 190
CCCCN(C=O)CCCC | 620
OCC(O)CCl (centres undefined) | 26
Cc1c(I)c(=O)n(-c2ccccc2)n1C | 2060
COC(=O)C(Cl)Cc1ccc(Cl)cc1 (centres undefined) | 1070
C[C@H]1O[C@@H](O[C@H]2[C@@H](O)C[C@H](O[C@H]3[C@@H](O)C[C@H](O[C@H]4CC[C@@]5(C)[C@H](CC[C@@H]6[C@@H]5C[C@@H](O)[C@]5(C)[C@@H](C7=CC(=O)OC7)CC[C@]65O)C4)O[C@@H]3C)O[C@@H]2C)C[C@H](O)[C@@H]1O | 28.3
CCCCOC(C)COC(=O)COc1cc(Cl)c(Cl)cc1Cl (centres undefined) | 500
CCCCN(CCN(CCCC)C(=O)N1CCOCC1)C(=O)N1CCOCC1 | 270

Compound | LD50 [mg/kg]
CCOP(=S)(OCC)Sc1ccc(C)cc1 | 316
CCCCCOC(CBr)c1ccc(C(C)C)cc1 (centres undefined) | 250
CN(C1CCCCC1)C1CCCCC1 | 446
CCCCC(CC)COCCO (centres undefined) | 3080
O=C(Cl)c1ccc([N+](=O)[O-])cc1 | 5600
COP(=S)(OC)SCN1C(=O)CCC1=O | 7
CC[C@H]1OC(=O)[C@H](C)[C@@H](O[C@H]2C[C@@](C)(OC)[C@@H](O)[C@H](C)O2)[C@H](C)[C@@H](O[C@@H]2O[C@H](C)C[C@H](N(C)C)[C@H]2O)[C@](C)(OC)C[C@@H](C)C(=O)[C@H](C)[C@@H](O)[C@]1(C)O | 1270
CC(Cl)(Cl)Cl | 9600
O=C(Cl)c1ccccc1C(F)(F)F | 8200
Clc1cc(Cl)c(Cl)cc1Cl | 1500
C[C@H](NC(=O)[C@H](C)NC(=O)[C@@H](N)CCP(C)(=O)O)C(=O)O | 268
CCCCC(CC)COC(CBr)c1cccc(Cl)c1 (centres undefined) | 250
CCCCCCCCc1ccc(C(CBr)OCCCC)cc1 (centres undefined) | 250
CCN(Cc1ccc(Cl)nc1)/C(=C/[N+](=O)[O-])NC | 1580
C=C1C(=CC=C2CCCC3(C)C2CCC3C(C)CCCC(C)C)CC(O)CC1O (centres undefined) | 340
CC(=O)Nc1ccc(CC(=O)O)cc1 | 14800
OCC(O)Oc1ccc(Cl)cc1Cl (centres undefined) | 1070
COc1ccc(C(OC)C2CCCCC2N2CCCCC2)cc1 (centres undefined) | 92
CCNC1=Nc2ccc(Cl)cc2C(C)(c2ccccc2)O1 (centres undefined) | 1500
O=C1C(Cc2ccccc2)C(=O)N(c2ccccc2)N1c1ccccc1 | 297
CCN1CCCC1CNS(=O)(=O)c1cc(Cl)c(N)cc1OC (centres undefined) | 1500
CCOP(=S)(CCl)Oc1ccc(C#N)cc1OC (centres undefined) | 71
CCC(=O)OCC(=O)[C@@]1(OC(=O)CC)[C@H](C)C[C@H]2[C@H]3[C@H]([C@@H](O)C[C@@]21C)[C@@]1(C)C=CC(=O)C=C1C[C@H]3Cl | 3590
O=C1OC(c2ccc(O)cc2)(c2ccc(O)cc2)c2c(I)c(I)c(I)c(I)c21 | 2800
